Experiment [1] concerns the target T1, human carbonic anhydrase I (hCA I) (Homo sapiens, UniProt P00915).
T1 construct: gene CA1; native enzyme purified from human erythrocytes
Put plainly: esterase assay (p-nitrophenyl acetate hydrolysis, […] nm), Lineweaver-Burk. Type of experiment: biochemical.

In experiment [2] the target is T2, human carbonic anhydrase II (hCA II) (Homo sapiens, UniProt P00918).
T2 construct: gene CA2; native enzyme purified from human erythrocytes
The experiment is described as above. The experiment is classed as biochemical.

This note sets out measurements from PMC6270996, “Capsaicin: A Potent Inhibitor of Carbonic Anhydrase Isoenzymes” (Molecules, 2014).

T1 sequence (P00915 2-261): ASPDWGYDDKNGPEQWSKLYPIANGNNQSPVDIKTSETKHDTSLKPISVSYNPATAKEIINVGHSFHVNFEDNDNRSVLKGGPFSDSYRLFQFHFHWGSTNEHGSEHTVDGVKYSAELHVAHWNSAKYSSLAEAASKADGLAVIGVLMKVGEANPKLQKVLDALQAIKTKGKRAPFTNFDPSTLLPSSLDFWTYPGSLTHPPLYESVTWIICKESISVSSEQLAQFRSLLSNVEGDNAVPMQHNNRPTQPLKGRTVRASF

For the compound `COc1cc(CNC(=O)CCCC/C=C/C(C)C)ccc1O` [capsaicin, trans-8-methyl-N-vanillyl-6-nonenamide], the Ki in experiment [1] came to 696 ± 59.4 µM; in experiment [2], 208 ± 14.4 µM.

The Ki is a dissociation constant, usually derived from enzyme kinetics or from competition with a known ligand. A high value points to a looser hold on the target.
